From US20250288571A1 (Nested Therapeutics, Inc., priority 2024, published 2025)

Key:
pMEK [1] = test: pMEK AlphaLISA (MEK1 pS218/222), A549 cells, EGF stimulated; format: cell-based; conditions: Homo sapiens, 2 h compound, EGF 30 ng/ml 15 min
Protocol: (§1) Determination of pMEK IC50s
(§2) A549 cells were cultured in F12K/10% FBS media (ATCC CAT #21127022) and were seeded at 10000 cells/well and HCT116 cells were cultured in McCoy's 5A/10% FBS media (Gibco Cat #30-2007) were seeded at 15000 cells/well in 384 microplates (Corning CAT #3765). Cells were incubated overnight in a TC incubator. Compounds were serially diluted and added to cells for 2 h in a TC incubator. At the end of the 2 h EGF (R&D Systems 236-EG-200) was added at a final EGF concentration of 30 ng/ml and incubated for 15 minutes at 37° C. in a TC incubator. AlphaLisa (Perkin Elmer) was performed according to manufacturer's instructions (Perkin Elmer CAT #ALPHA.SF ULTRA MEK1 PS218/222). The percent (%) inhibition at each concentration of compound is calculated based on and relative to the AlphaLISA signal in the HPE and ZPE control wells contained within each assay plate. The ZPE control wells contain cells and DMSO as 0% inhibition, and the HPE control wells only contain cells and control compound (Sellekchem Staurosporin CAT #S1421) as 100% inhibition.

pMEK [2] = test: pMEK AlphaLISA (MEK1 pS218/222), HCT116 cells, EGF stimulated; format: cell-based; conditions: Homo sapiens, HCT-116, 2 h compound, EGF 30 ng/ml 15 min
Protocol: as §1, §2

HCT116 cells = test: HCT116 Cell Titer Glow assay (CTG); conditions: Homo sapiens, HCT-116, 72 h; for IC50: read-out: CTG IC50 (nM) Cell Line: HCT116.20; for viability at 1000 µM: read-out: CTG % cell viability 1000 uM HCT116.20, HCT116 cells, 72 hours, 1000 uM, percent cells remaining after treatment
Protocol: HCT116 and IPC298 Cell Titer Glow Assay (CTG)
HCT116 cells and IPC298 cells were diluted with culture medium to the desired density 500 cells/well and 40 μL of cell suspension were added into each well of 384-well cell culture plate. […] The plates were covered and stored at room temperature for 30 minutes without shaking and then the plates were transferred into a 37° C. 5% CO2 incubator overnight.
A 10 mM solution in dimethyl sulfoxide (DMSO) was prepared for each test compound. A 3 fold, 10-point dilution was prepared from the stock solution. 40 nl of each solution in 100% DMSO was added to the 384-well plate and diluted to a final 0.1% DMSO final concentration. The plates were then incubated for 72 hours (for both cell lines) at 37° C.
CellTiter-Glo® 2.0 Reagent (Promega, G9242) was removed from the refrigerator and equilibrated at room temperature (23° C.) for 60 minutes. The plates were then removed from the incubator and allowed to equilibrate to room temperature. 30 μL CellTiter-Glo® 2.0 Reagent were added to the assay plates, and spun 1 min/1000 rpm. The plates were allowed to stand for about 20 minutes before being read on Envision using a standard luminescence readout. DMSO was employed as negative control (High control, HC) and 1 uM Staurosporine was employed as positive control (Low control, LC).
The percent (%) inhibition at each concentration of compound was calculated based on the signal in the negative and positive control wells contained within each assay plate.

IPC298 cells = test: IPC298 Cell Titer Glow assay (CTG); conditions: Homo sapiens, IPC-298, 72 h, read-out: CTG IC50 (nM) Cell Line: IPC298.2

SMILES | IC50 (pMEK [1]) | IC50 (pMEK [2]) | IC50 (HCT116 cells) | IC50 (IPC298 cells) | viability at 1000 µM (HCT116 cells)
CNS(=O)(=O)Nc1nccc(Cc2cncc(Oc3ncc(Cl)cc3F)c2C)c1F [Example 29, {[4-({5-[(5-chloro-3-fluoropyridin-2-yl)oxy]-4-methylpyridin-3-yl}methyl)-3-fluoropyridin-2-yl]sulfamoyl}(methyl)amine] | 10 to 100 nM | 10 to 100 nM | – | – | –
CNS(=O)(=O)Nc1nccc(Cc2cncc(OCc3ncccc3F)c2C)c1F [Example 34, {[3-fluoro-4-({5-[(3-fluoropyridin-2-yl)methoxy]-4-methylpyridin-3-yl}methyl)pyridin-2-yl]sulfamoyl}(methyl)amine] | 500 to 1000 nM | > 1000 nM | – | – | –
CNS(=O)(=O)Nc1ccc(Cc2cncc(Nc3ccc(Cl)cc3F)c2C)cc1OC [Example 25, N-(4-chloro-2-fluoro-phenyl)-5-[[3-methoxy-4-(methylsulfamoylamino)phenyl]methyl]-4-methyl-pyridin-3-amine] | > 1000 nM | > 1000 nM | – | – | –
CNS(=O)(=O)Nc1nccc(Cc2cncc(Nc3ccc(F)cc3F)c2C)c1F [Example 7, N-(2,4-difluorophenyl)-5-({3-fluoro-2-[(methylsulfamoyl)amino]pyridin-4-yl}methyl)-4-methylpyridin-3-amine] | < 10 nM | < 10 nM | – | – | –
CNS(=O)(=O)Nc1nccc(Cc2cncc(N(C)c3ccc(Cl)cc3F)c2C)c1F [Example 36, N-(4-chloro-2-fluorophenyl)-5-({3-fluoro-2-[(methylsulfamoyl)amino]pyridin-4-yl}methyl)-N,4-dimethylpyridin-3-amine] | < 10 nM | < 10 nM | – | – | –
CNS(=O)(=O)Nc1nccc(Cc2cncc(Oc3ccc(SC)cc3)c2C)c1F [Example 71, {[3-fluoro-4-({4-methyl-5-[4-(methylsulfanyl)phenoxy]pyridin-3-yl}methyl)pyridin-2-yl]sulfamoyl}(methyl)amine] | – | – | < 10 nM | < 10 nM | –
CNS(=O)(=O)Nc1nccc(Cc2cncc(OCc3cccc(Cl)c3)c2C)c1F [Example 86, 4-[[5-[(3-chlorophenyl)methoxy]-4-methyl-3-pyridyl]methyl]-3-fluoro-N-(methylsulfamoyl)pyridin-2-amine] | – | – | 100 to 500 nM | 10 to 100 nM | –
CNS(=O)(=O)Nc1nccc(Cc2cncc(-c3ccc(Cl)cc3F)c2C)c1F [Example 44, [(4-{[5-(4-chloro-2-fluorophenyl)-4-methylpyridin-3-yl]methyl}-3-fluoropyridin-2-yl)sulfamoyl](methyl)amine] | – | – | > 1000 nM | 10 to 100 nM | 28%
CNS(=O)(=O)Nc1nccc(Cc2cncc(Oc3ccc(Cl)cc3C)c2C)c1F [Example 76, 4-[[5-(4-chloro-2-methyl-phenoxy)-4-methyl-3-pyridyl]methyl]-3-fluoro-N-(methylsulfamoyl)pyridin-2-amine] | – | – | 100 to 500 nM | < 10 nM | –
CCc1ccc(Nc2cncc(Oc3ccnc(NS(=O)(=O)NC)c3F)c2C)c(F)c1 [Example 80, N-(4-ethyl-2-fluorophenyl)-5-({3-fluoro-2-[(methylsulfamoyl)amino]pyridin-4-yl}oxy)-4-methylpyridin-3-amine] | – | – | < 10 nM | < 10 nM | –
CNS(=O)(=O)Nc1nccc(Cc2cccc(Nc3ccc(Cl)cc3F)c2C)c1F [Example 70, 4-[[3-(4-chloro-2-fluoro-anilino)-2-methyl-phenyl]methyl]-3-fluoro-N-(methylsulfamoyl)pyridin-2-amine] | – | – | > 1000 nM | 10 to 100 nM | 50.2%
CNS(=O)(=O)Nc1nccc(Cc2cncc(Oc3ccc(C4CC4)cc3F)c2C)c1F [Example 99, 4-[[5-(4-cyclopropyl-2-fluoro-phenoxy)-4-methyl-3-pyridyl]methyl]-3-fluoro-N-(methylsulfamoyl)pyridin-2-amine] | – | – | < 10 nM | < 10 nM | –
Cc1ccc(Nc2cncc(Cc3ccnc(NS(N)(=O)=O)c3F)c2C)c(F)c1 [Example 96, 3-fluoro-4-[[5-(2-fluoro-4-methyl-anilino)-4-methyl-3-pyridyl]methyl]-2-(sulfamoylamino)pyridine] | – | – | 10 to 100 nM | < 10 nM | –
